According to patent publication US10765751B2, “pH sensitive carrier and preparation method thereof, and pH sensitive drug and pH sensitive drug composition each containing the carrier, and method for treating or preventing diseases using the same” (TERUMO KABUSHIKI KAISHA, priority 2012, dated 2020):

Test system: RAW cells
Assay: Evaluation of cytosolic delivery where pH sensitive carrier and physiologically active substance were used independently
Type: cell-based
Details: 30 μg/mL peptide-FITC or OVA-FITC, carrier added separately (160 nmol pH sensitive compound, 100 nmol amphipathic substance); FIG. 22
Protocol: On the previous day, RAW cells were spread on a matsunami glass bottom dish and cultured with 10% FBS-containing MEM. After rinsing with PBS, MEM was added, followed by a one hour incubation. 1900 μL of MEM containing fluorescence-labeled peptide-FITC or fluorescence-labeled OVA-FITC at a concentration of 30 μg/mL was prepared and substituted with the culture medium. Moreover, a solution of 100 μL of a pH sensitive carrier was added, followed by 16 to 20 hours of incubation in the culture medium in such a state that both were mixed. It was already confirmed that the fluorescence-labeled peptide-FITC and fluorescence-labeled OVA-FITC were each not supported with the pH sensitive carrier in a mixed state with a pH sensitive carrier-containing solution. After rinsing with PBS and three hours post-incubation with 2 mL of fresh MEM, the cells were rinsed with PBS, followed by substitution with phenol red-free DMEM and observation through a fluorescence microscope. The culture was carried out by use of an incubator (MCO20AIC) set at 5% CO2 and 37° C. and the cells were observed through a fluorescence microscope (Axiovert 200M—soft: Axio vision 3.0—light source: Fluo Arc).

**Q.** With “fluorescence-labeled OVA-FITC: FITC fluorescence-labeled OVA model protein” as the substance, how does the “localisation of fluorescence-labeled peptide-FITC or OVA-FITC in cells (cytosolic delivery)” value read?
**A.** remained in the endosome
